Assay results: patent US11613746B2, “Methods for developing virus protein specific capture agents, capture agents, and methods of using the capture agents” (priority 2019, dated 2023)
Like-named read-outs stand apart in the source and are kept apart here.

Target: T1, CHIKV E2 protein (Chikungunya virus, UniProt Q8JUX5)
T1 construct: incubated with varying concentrations of biotin conjugated CHIKV E2 protein
T1 sequence (Q8JUX5 326-748 limits assumed): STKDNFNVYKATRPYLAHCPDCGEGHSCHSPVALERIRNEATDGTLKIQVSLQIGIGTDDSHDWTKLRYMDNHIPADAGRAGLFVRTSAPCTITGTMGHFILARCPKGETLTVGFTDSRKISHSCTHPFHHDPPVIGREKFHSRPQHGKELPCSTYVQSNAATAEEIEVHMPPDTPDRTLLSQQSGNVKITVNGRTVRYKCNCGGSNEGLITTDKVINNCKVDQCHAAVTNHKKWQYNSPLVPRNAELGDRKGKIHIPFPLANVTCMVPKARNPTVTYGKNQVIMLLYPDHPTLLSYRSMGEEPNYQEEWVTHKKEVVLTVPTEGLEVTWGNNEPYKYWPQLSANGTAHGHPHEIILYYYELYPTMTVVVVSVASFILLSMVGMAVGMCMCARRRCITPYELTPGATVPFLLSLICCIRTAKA
Assay: LUMINEX binding assay (sandwich-type) of bead-attached capture agents with biotin conjugated CHIKV E2 protein
Conditions: for EC50: FIG. 9
Experimental: Referring to FIG. 4, the binding performance of each capture agent is determined using a LUMINEX® binding assay, which is essentially the same as a sandwich-type ELISA, where the peptides are attached to a bead as a one-arm polyethylene glycol (PEG) or three-arm PEG construct. By allowing these beads to interact with varying concentrations of the CHIKV E2 protein, one can determine and compare the binding performance of each capture agent construct. A smaller value of the variable on the horizontal axis at the inflection point of a given plot for a corresponding capture agent indicates stronger binding for the corresponding capture agent with respect to the target protein or target molecule.
Referring to FIG. 4, the assay for an illustrative example was performed on a LUMINEX® 200 instrument. LUMINEX®'s xMAP technology drives multiplexed assay capabilities by combining fluidics, optics, and digital signal processing with microsphere technology. The LUMINEX® 200 is capable of testing up to 100 analytes simultaneously from a single sample and is the leading multiplex immunoassay technology. In general, the color-coded microspheres are the substrate on which the solution phase assays are performed, where a specific microsphere color corresponds to an individual receptor attached to the microsphere surface.
In one illustrative example, 6 separate microsphere regions were first functionalized with a single arm polyethlyglycine (PEG) azide molecule. Each microsphere region was then reacted with an individual, alkyne-functionalized cyclic peptide (with the sequence WIYYI, IYLRY, YWHWS, FWQIL), or an equal combination of all sequences (noted as “polyclonal”). As a control, polyclonal Anti-E2 antibody was attached to a bead region for performance comparison against the peptide constructs. In an analogous experiment, the exact same process was repeated, except the single arm PEG azide molecule was switched to a 3-arm PEG azide molecule.
The details of some of the synthesis and experimental techniques useful in the embodiments herein can be found in United States Patent Application Publication No. US 2017/0349754 A1, by Matthew B. Coppock, published Dec. 7, 2017, M. B. Coppock et al., “A novel discovery, maturation, and assay integration approach for the development of ruggedized multi-valent capture receptors exemplified against the chikungunya virus E2 protein,” Sensing and Bio-Sensing Research 22 (2019) 100248, and M. B. Coppock, D. N. Stratis-Cullum, “A universal method for the functionalization of dyed magnetic microspheres with peptides,” Methods 158 (2019) 12-16, all of which, including their supplemental parts and appendices, are incorporated by reference herein in their entirety. […]

Substance: WIYYI
- binding activity remaining after heating (heated at 90° C. for 1 hr, result in words): no loss in binding activity
- binding performance compared to commercially available antibody raised against E2 (multi-arm constructs, result in words): outperform the antibody

Substance: WIYYI (chains of the parent or of the whole protein)
- EC50 (heated at 90° C. for 1 hr before assay, read-out: EC50 (binding activity for CHIKV E2) after heating): 0.245 ± 0.005 nM
- EC50 (unheated control, LUMINEX assay, read-out: EC50 (binding activity for CHIKV E2) before heating): 0.232 ± 0.006 nM
